Row | melting point | Compound
1 | 82 to 84 °C | O=C(Cc1ccc(F)cc1)N[C@@H](CSCc1ccc(-c2ccc(-c3c(Cc4ccccc4)oc4ccccc34)cc2)cc1)C(=O)O [Example 74, (2R)-2-(4-Fluorophenylacetylamino)-3-[4′-(2-benzylbenzofuran-3-yl)biphen-4-ylmethylsulfanyl]-propionic acid]
2 | 170 to 172 °C | Nc1ccc(CC(=O)N[C@@H](CSCc2ccc(-c3ccc(-c4c(Cc5ccccc5)oc5ccccc45)cc3)cc2)C(=O)O)cc1 [Example 82, (2R)-2-(4-Aminophenylacetylamino)-3-[4′-(2-benzylbenzofuran-3-yl)biphen-4-ylmethylsulfanyl]-propionic acid]
3 | 131 to 132 °C | CC(=O)N[C@@H](CSCc1ccc(-c2ccc(-c3c(Cc4ccccc4)oc4ccccc34)cc2)cc1)C(=O)O [Example 80, (2R)-2-Acetylamino-3-[4′-(2-benzylbenzofuran-3-yl)biphen-4-ylmethylsulfanyl]-propionic acid]
4 | 59 to 60 °C | COc1ccc(CC(=O)N[C@@H](CSCc2ccc(-c3ccc(-c4c(Cc5ccccc5)oc5ccccc45)cc3)cc2)C(=O)O)cc1 [Example 81, (2R)-2-(4-Methoxyphenylacetylamino)-3-[4′-(2-benzylbenzofuran-3-yl)biphen-4-ylmethylsulfanyl]-propionic acid]
5 | 189 to 191 °C | O=C(Cc1ccccc1[N+](=O)[O-])N[C@@H](CSCc1ccc(-c2ccc(-c3c(Cc4ccccc4)oc4ccccc34)cc2)cc1)C(=O)O [Example 78, (2R)-2-(2-Nitrophenylacetylamino)-3-[4′-(2-benzylbenzofuran-3-yl)biphen-4-ylmethylsulfanyl]-propionic acid]
6 | 138 to 139 °C | O=C(N[C@@H](CSCc1ccc(-c2ccc(-c3c(Cc4ccccc4)oc4ccccc34)cc2)cc1)C(=O)O)c1ccccc1 [Example 70, (2R)-2-Benzoylamino-3-[4′-(2-benzylbenzofuran-3-yl)biphen-4-ylmethylsulfanyl]-propionic acid]
7 | 108 to 109 °C | O=C(Cc1cccc([N+](=O)[O-])c1)N[C@@H](CSCc1ccc(-c2ccc(-c3c(Cc4ccccc4)oc4ccccc34)cc2)cc1)C(=O)O [Example 75, (2R)-2-(3-Nitrophenylacetylamino)-3-[4′-(2-benzylbenzofuran-3-yl)biphen-4-ylmethylsulfanyl]-propionic acid]
8 | 149 to 150 °C | O=C(N[C@@H](CSCc1ccc(-c2ccc(-c3c(Cc4ccccc4)oc4ccccc34)cc2)cc1)C(=O)O)c1ccc2nc[nH]c2c1 [Example 73]
9 | 77 to 78 °C | O=C(Cc1ccccc1)N[C@@H](CSCc1ccc(-c2ccc(-c3c(Cc4ccccc4)oc4ccccc34)cc2)cc1)C(=O)O [Example 71, (2R)-2-Phenylacetylamino-3-[4′-(2-benzylbenzofuran-3-yl)biphen-4-ylmethyl-sulfanyl]-propionic acid]
10 | 148 to 149 °C | O=C(Cc1ccc(O)cc1)N[C@@H](CSCc1ccc(-c2ccc(-c3c(Cc4ccccc4)oc4ccccc34)cc2)cc1)C(=O)O [Example 79, (2R)-2-(4-Hydroxyphenylacetylamino)-3-[4′-(2-benzylbenzofuran-3-yl)biphen-4-ylmethylsulfanyl]-propionic acid]
11 | 102 to 103 °C | O=C(Cc1ccc([N+](=O)[O-])cc1)N[C@@H](CSCc1ccc(-c2ccc(-c3c(Cc4ccccc4)oc4ccccc34)cc2)cc1)C(=O)O [Example 77, (2R)-2-(4-Nitrophenylacetylamino)-3-[4′-(2-benzylbenzofuran-3-yl)biphen-4-ylmethylsulfanyl]-propionic acid]

Second part, the molecule before the results:

Row | Compound | melting point
12 | CC(C)(C)OC(=O)N[C@@H](CSCc1ccc(-c2ccc(-c3ccc4c(c3)OCO4)cc2)cc1)C(=O)O (stereo in doubt) [Example 101, 3-(4′-Benzo[1,3]dioxol-5-yl-biphenyl-4-ylmethylsulfanyl)-2-tert-butoxycarbonylamino-propionic acid] | 178 to 180 °C
13 | COC(=O)N[C@@H](CSCc1ccc(-c2ccc(-n3ccc4ccccc43)cc2)cc1)C(=O)O [Example 12, (2R)-3-(4′-Indol-1-ylbiphen-4-ylmethylsulfanyl)-2-methoxycarbonylamino-propionic acid] | 81 to 82 °C
14 | CC(C)(C)OC(=O)N[C@@H](C[S+]([O-])Cc1ccc(-c2ccc(-c3c(Cc4ccccc4)oc4ccccc34)cc2)cc1)C(=O)O (stereo partly drawn) [Example 67, (2R,4RS)-3-[4′-(2-benzylbenzofuran-3-yl)biphen-4-ylmethylsulfinyl]-2-tert-butoxycarbonylaminopropionic acid] | 195 to 196 °C
15 | CC(C)(C)OC(=O)N[C@@H](CSCc1ccc(-c2ccc(-c3c(Cc4ccccc4)oc4ccccc34)cc2)cc1)C(=O)O [Example 66, (2R)-3-[4′-(2-benzylbenzofuran-3-yl)biphen-4-ylmethylsulfanyl]-2-tert-butoxy-carbonylamino-propionic acid] | 89 to 90 °C
16 | O=C(Cc1cccc([N+](=O)[O-])c1)N[C@@H](CSCc1ccc(-c2ccc(-n3ccc4ccccc43)cc2)cc1)C(=O)O [Example 10, (2R)-3-(4′-Indol-1-ylbiphen-4-ylmethylsulfanyl)-2-[2-(3-nitrophenyl)acetylamino]-propionic acid] | 94 °C
17 | O=C(Cc1cccc([N+](=O)[O-])c1)N[C@@H](C[S+]([O-])Cc1ccc(-c2ccc(-n3ccc4ccccc43)cc2)cc1)C(=O)O (stereo partly drawn) [Example 17, (2R)-3-(4′-Indol-1-ylbiphen-4-ylmethylsulfinyl)-2-[2-(3-nitrophenyl)acetylamino]-propionic acid] | 197 to 198 °C
18 | CC(C)(C)OC(=O)N[C@@H](C[S+]([O-])Cc1ccc(-c2ccc(-n3ccc4ccccc43)cc2)cc1)C(=O)O (stereo partly drawn) [Example 7, (2R)-tert-Butoxycarbonylamino-3-(4′-indol-1-ylbiphen-4-ylmethylsulfinyl)-propionic acid] | 169 to 170 °C
19 | O=C(O)[C@H](CSCc1ccc(-c2ccc(-n3ccc4ccccc43)cc2)cc1)NC(=O)N1CCOCC1 [Example 14, (2R)-3-(4′-Indol-1-ylbiphen-4-ylmethylsulfanyl)-2-[(morpholine-4-carbonyl)-amino]-propionic acid] | 195 °C (dec.)
20 | CC(C)(C)OC(=O)NC(CSCc1ccc(-c2nc(-c3ccccc3)cc(-c3ccccc3)n2)cc1)C(=O)O (stereo not drawn) [Example 93, 2-tert-Butoxy carbonylamino-3-[4-(4,6-diphenylpyrimidin-2-yl)-benzylsulfanyl]propionic acid] | 250 °C (dec.)
21 | CC(C)COC(=O)N[C@@H](CSCc1ccc(-c2ccc(-n3ccc4ccccc43)cc2)cc1)C(=O)O [Example 13, (2R)-3-(4′-Indol-1-ylbiphen-4-ylmethylsulfanyl)-2-isobutoxycarbonylamino-propionic acid] | 85 to 86 °C
22 | CC(C)(C)OC(=O)N[C@@H](CSCc1ccc(-c2ccc(-c3cccc4c3sc3ccccc34)cc2)cc1)C(=O)O [Example 107, 2-tert-Butoxycarbonylamino-3-(4′-dibenzothiophen-4-yl-biphenyl-4-ylmethyl-sufanyl)-propionic acid] | 108 to 110 °C
23 | CC(C)(C)OC(=O)N[C@@H](CS(=O)(=O)Cc1ccc(-c2ccc(-c3c(Cc4ccccc4)oc4ccccc34)cc2)cc1)C(=O)O [Example 68, (2R)-3-[4′-(2-benzylbenzofuran-3-yl)biphen-4-ylmethylsulfonyl]-2-tert-butoxycarbonylaminopropionic acid] | 202 to 203 °C
24 | CC(=O)NC(CSCc1ccc(-c2nc(-c3ccccc3)cc(-c3ccccc3)n2)cc1)C(=O)O (stereo not drawn) [Example 95, 2-Acetylamino-3-[4-(4,6-diphenyl-pyrimidin-2-yl)-benzylsulfanyl]-propionic acid] | 223 to 226 °C

Reference: patent publication US7358248B2, “Substituted amino carboxylic acids” (The Institute for Pharmaceutical Discovery LLC, priority 2003, dated 2008)
